Data: patent US20040215021A1, “Stable lansoprazole containing more than 500 ppm, up to about 3,000 ppm water and more than 200 ppm, up to about 5,000 ppm alcohol” (priority 2002, published 2004)
Read-outs that look alike come from different tables or passages of the source.

Columns and labels:
[1] = Stability of lansoprazole under different storage conditions (HPLC impurities); assay type: physicochemical
Excerpt: The obtained lansoprazole is stable.
(§1) Chromatographic purity method of lansoprazole is detailed in the monograph in USP Forum Vol.26(5) [September-October 2000].

[2] = cited from earlier work
[3] = Stability of stabilized vs. non-stabilized 'solvent-free' lansoprazole (HPLC impurities, color); assay type: physicochemical; conditions: 3 months, 40° C., 75% humidity
Excerpt: as §1

Cc1c(OCC(F)(F)F)ccnc1C[S+]([O-])c1nc2ccccc2[nH]1 (centres unmarked) [Lansoprazole, 2-[[[3-methyl-4-(2,2,2-trifluoro-ethoxy)-2-pyridinyl]methyl]sulfinyl]-1H-benzimidazole]
LNP-SO2 ([1]; 1 month, 2-8° C.): 0.04%
LNPS ([1]; 1 month, 2-8° C.): 0.01%
Total Impurities ([1]; 1 month, 2-8° C.): 0.05%
LNP-SO2 ([1]; 1 month, 25° C., 60% humidity): 0.04%
LNPS ([1]; 1 month, 25° C., 60% humidity): 0.01%
Total Impurities ([1]; 1 month, 25° C., 60% humidity): 0.09%
LNP-SO2 ([1]; 2 month, 2-8° C.): 0.04%
LNPS ([1]; 2 month, 2-8° C.): 0.01%
Total Impurities ([1]; 2 month, 2-8° C.): 0.05%
LNP-SO2 ([1]; 2 month, 25° C., 60% humidity): 0.04%
LNPS ([1]; 2 month, 25° C., 60% humidity): 0.01%
Total Impurities ([1]; 2 month, 25° C., 60% humidity): 0.08%
LNP-SO2 ([1]; 2 weeks, 25° C., 60% humidity): 0.04%
LNPS ([1]; 2 weeks, 25° C., 60% humidity): <detection limit
Total Impurities ([1]; 2 weeks, 25° C., 60% humidity): 0.04%
LNP-SO2 ([1]; 3 month, 2-8° C.): 0.04%
LNPS ([1]; 3 month, 2-8° C.): <detection limit
Total Impurities ([1]; 3 month, 2-8° C.): 0.04%
LNP-SO2 ([1]; 3 month, 25° C., 60% humidity): 0.04%
LNPS ([1]; 3 month, 25° C., 60% humidity): <detection limit
Total Impurities ([1]; 3 month, 25° C., 60% humidity): 0.1%
LNP-SO2 ([1]; 6 month, 2-8° C.): 0.04%
LNPS ([1]; 6 month, 2-8° C.): <detection limit
Total Impurities ([1]; 6 month, 2-8° C.): 0.04%
LNP-SO2 ([1]; 6 month, 25° C., 60% humidity): 0.04%
LNPS ([1]; 6 month, 25° C., 60% humidity): <detection limit
Total Impurities ([1]; 6 month, 25° C., 60% humidity): 0.12%
LNP-SO2 ([1]; 9 month, 2-8° C.): 0.05%
LNPS ([1]; 9 month, 2-8° C.): <detection limit
Total Impurities ([1]; 9 month, 2-8° C.): 0.05%
LNP-SO2 ([1]; 9 month, 25° C., 60% humidity): 0.05%
LNPS ([1]; 9 month, 25° C., 60% humidity): 0.04%
Total Impurities ([1]; 9 month, 25° C., 60% humidity): 0.18%
LNPS ([1]; 12 month, 2-8° C.): <detection limit
Total Impurities ([1]; 12 month, 2-8° C.): 0.03%
LNP-SO2 ([1]; 12 month, 25° C., 60% humidity): 0.04%
LNPS ([1]; 12 month, 25° C., 60% humidity): 0.07%
Total Impurities ([1]; 12 month, 25° C., 60% humidity): 0.32%
Stability (in words) ([1]; product of Example 2, water 2,200 ppm, alcohol <50 ppm): stable
LNP-SO2 ([1]; time 0): 0.04%
LNPS ([1]; time 0): <detection limit
Total Impurities ([1]; time 0): 0.04%
Color on storage ([2]; 4 months at 40° C. and 75% room humidity): pale brown
Color on storage ([2]; 4 months at 40° C., absence of humidity): pale yellowish brown

Cc1c(OCC(F)(F)F)ccnc1C[S+]([O-])c1nc2ccccc2[nH]1 (centres unmarked) [wet lansoprazole product]
Stability (in words) ([1]; Example 4, wet product before drying, water about 2,200 ppm, ethanol about 300 to about 500 ppm expected): behave similarly to the dry lansoprazole

Cc1c(OCC(F)(F)F)ccnc1C[S+]([O-])c1nc2ccccc2[nH]1 (centres unmarked) [Lansoprazole Not Stabilized With Ammonia]
Color [3]: Brownish
LNP-SO2 [3]: 0.04%
LNPS [3]: 0.06%
Total Impurities [3]: 0.31%

Cc1c(OCC(F)(F)F)ccnc1C[S+]([O-])c1nc2ccccc2[nH]1 (centres unmarked) [Lansoprazole Stabilized With Ammonia]
Color [3]: White
LNP-SO2 [3]: 0.02%
LNPS [3]: 0.03%
Total Impurities [3]: 0.08%
